From publication PMC10759609, “A novel PDPN antagonist peptide CY12-RP2 inhibits melanoma growth via Wnt/β-catenin and modulates the immune cells” (Journal of Experimental & Clinical Cancer Research : CR, 2024) come the findings set out here.

The structures appear in SMILES notation. Peptide text beside a SMILES is read from it.

For assay [1], the system named is Wnt/β-catenin signaling pathway. In words: Western blot, EMT and Wnt/β-catenin pathway, melanoma cells. Particulars: melanoma cells treated with peptide. Format: cell-based. On the procedure: Melanoma cells were cultured in a 60 mm dish with a complete medium and various peptide concentrations (0 μM, 5 μM, 25 μM). Protein was extracted after cells were cultured or treated for 48 h using protein lysis buffer, separated using a 10% or 15% Bis–Tris PAGE gel (Epizyme Biomedical Technology, Shanghai, China), and transferred onto a PVDF membrane (Thermo Fisher Scientific) according to standard techniques. The Western blots were imaged using Bio-rad Chemidoc MP and quantified using ImageJ software (NIH).
(§1) Fig. S4: The inhibition of cells metastasis and invasion by CY12-RP2 can be […]
(A, B) The inhibition of CY12-RP2 on the migration capacity of melanoma cell lines was reversed by SKL2001 (A). Statistical analysis was performed to determine the migrated distance (B). The power field scale bar, 100 μm. (C, D) Effect of CY12-RP2 on the invasive ability of melanoma cell lines were reversed by SKL2001 (C). […]
(A) TUNEL analysis of apoptosis was conducted on orthotopic xenografts tumor sections using fluorescence staining. […] (B) Fluorescence staining of Ki67 was carried out on orthotopic xenograft tumor sections.
(§2) The power field scale bar, 100 μm. (C) Serum His-CY12-RP2 levels of the orthotopic xenografts mice treated by various dosage of CY12-RP2 were measured by His-ELISA kit. […]
(§3) kit. (E) Serum ALT, AST, TG, and γ-GT levels of the orthotopic xenografts model were measured by ELISA. […]
A general note: A western blot detects proteins with antibodies after separation by electrophoresis.

Assay [2] relates to Ki67. Description: Ki67 fluorescence staining of xenograft tumors. Format: in vivo, BALB/c nude mice. Particulars: A375 xenograft tumors. As for the experimental part: as §1
(A, B) The inhibition of CY12-RP2 on the migration capacity of melanoma cell lines was reversed by SKL2001 (A). Statistical analysis was performed to determine the migrated distance (B). The power field scale bar, 100 μm. (C, D) Effect of CY12-RP2 on the invasive ability of melanoma cell lines were reversed by SKL2001 (C).
Statistical analysis was performed to count the invaded cells (D). The power field scale bar, 100 μm. (E) Western blot assay was also performed to detect the proteins related to EMT and Wnt/β-catenin signaling pathway, including N-cadherin, Vimentin, snail, Dvl2, Phospho-β-catenin-S675, β-catenin, Phospho-GSK3β-Ser9 and GSK3β by CY12-RP2 with or without SKL2001 (50 μM). Data are presented as mean ± SD. *p < […]
Fig. S5: Effects and toxicity of CY12-RP2 in vivo
(A) TUNEL analysis of apoptosis was conducted on orthotopic xenografts tumor sections using fluorescence staining. The power field scale bar, 100 μm. (B) Fluorescence staining of Ki67 was carried out on orthotopic xenograft tumor sections.
as §2, §3

The test system of assay [3] is A875 cells. In words: Transwell matrigel invasion, A875. It counts as cell-based. Particulars: transwell matrigel, 0, 5, 25 μM, 48 h. As for the experimental part: For invasion assay, matrigel (Corning, New York, USA) was coated on the upper surface of the upper chamber. The upper chamber was filled with DMEM medium containing 2% FBS, while the lower chamber contained a medium supplemented with 20% FBS. In brief, melanoma cells (A375 GFP, A875 GFP, A375 PDPN^−/−, and A875 PDPN^+/+ cells) were seeded in the upper chamber of the transwell plate (Corning, New York, USA) at about 5 × 10^4 cells/well with the medium as described above. For peptide functionality experiments, A375 and A875 cells were seeded in the upper chamber of the transwell plate at a density of 5 × 10^4 cells/well with various peptide concentrations (0 μM, 5 μM, 25 μM). Transwell inserts were fixed using 4% paraformaldehyde after 48 h cell invasion, and crystalline violet was used for staining. The quantities of invading cells were quantified using ImageJ software (NIH).

The test system of assay [4] is B16F10-Luc melanoma allograft. It counts as in vivo, BALB/c mice; murine melanoma cell line. Particulars: 100 mg/kg, tail vein, every other day for 15 days. On the procedure:
Tumorigenesis assays were conducted in vivo using BALB/c nude mice and BALB/c mice from Guangdong Medical Laboratory Animal Center. The animal study was reviewed and approved by the Administrative Committee on Animal Research of Shenzhen International Graduate School, Tsinghua University (Ethical Development No. 16, 10 November 2021). Samples with 5 × 10^5 A375 or B16F10-Luc melanoma cells were diluted in 100 μL PBS and injected subcutaneously into 6- to 8-week-old female BALB/c nude mice or BALB/c mice. 5 days later, the mice were treated with CY12-RP2 by tail vein administration at various doses (25 mg/kg and 100 mg/kg) every two days. The tumor volume and body weight were measured every 2 days, with the calculation of the tumor volume under the assumption of an ellipsoidal tumor as: tumor volume = length × width^2/2. Tumors from BALB/c nude mice were collected and photographed on day 21, while tumors from the allograft mouse model were measured using bioluminescence imaging. The blood collected from the eyes of BALB/c nude mice were stored at 4 °C for 24 h and then centrifuged for 15 min under the indicated conditions (4 °C, 3000 rpm). The supernatant was collected and assayed for drug toxicity using kits, including AST, ALT, TG, and γ-GT. […]

Assay [5] relates to A875 cells. Description: Wound healing (migration), A875. Format: cell-based. Particulars: wound healing, 0, 5, 25 μM, 24 h or 48 h. As for the experimental part:
A375 GFP, A875 GFP, A375 PDPN^−/−, and A875 PDPN^+/+ cells were all seeded in 12-well plates at a density of 5 × 10^5 cells/well. When the cells reached 100% confluence the next day, the straight wound was scraped in each cultured well with a 20 µL pipette tip. Then the cells were washed repeatedly with complete DMEM to remove the cellular debris, and the medium was changed to a low serum medium containing 0.05% FBS. The scratch-treated cells were subsequently cultured for an additional indicated time and imaged at 0 h, 12 h, 24 h and 48 h. Quantification of wound closure was accomplished by measuring the distance between the phase contrast images’ anterior edges of the contralateral surfaces using ImageJ software. As for peptide (CY12-RP2) function experiments, images of phase contrast for A375 GFP and A875 GFP cells were captured at 0 h before peptide administration. The cells were then treated with CY12-RP2 (0 μM, 5 μM, 25 μM) for 24 h or 48 h, and then images were acquired again. Handling of the experimental results were carried out as previously described.

In the case of `CC(C)C[C@H](NC(=O)[C@H](Cc1ccc(O)cc1)NC(=O)[C@@H](N)[C@@H](C)O)C(=O)N[C@@H](CS)C(=O)N[C@H](C(=O)N[C@@H](C)C(=O)N[C@@H](CS)C(=O)N[C@@H](CC(=O)O)C(=O)N[C@@H](Cc1ccc(O)cc1)C(=O)N[C@H](C(=O)N[C@@H](Cc1c[nH]cn1)C(=O)N[C@@H](Cc1c[nH]cn1)C(=O)O)[C@@H](C)O)[C@@H](C)O` [CY12-RP2] (H-TYLCTACDYTHH-OH; N-terminus and C-terminus assumed), the Wnt/β-catenin pathway entry in assay [1] is reported as “could inhibit the Wnt/β-catenin pathway”. In addition, the “level of Ki67” value in assay [2] is given as “significantly decreased”. Besides, the invasion result in assay [3] is given as “could only be inhibited at high concentrations”. Moreover, the tumor volume result in assay [4] is on record as “noticeably decreased”. Besides, the “tumor growth (bioluminescence imaging)” value in assay [4] (vs control) is given as “significantly decreased tumor growth”. Also, the migration result in assay [5] is “inhibited migration at the corresponding time both in A375 and A875 cells”.
